# Reference: patent US20230248034A1, “A SWEETENER OR SWEETNESS ENHANCER COMPOSITION” (ANALYTICON DISCOVERY GMBH, priority 2020, published 2023)
# How the values were obtained:
# [1] = 5% sucrose in water; cited from earlier work
# [2] = Organoleptic test of the compounds against sucrose (sweetness); assay type: in vivo; set-up: key: 3: sweeter than the control solution; 2: sweetness comparable with the control solution; 1: less sweet than the control solution but still sweet; details: 0.4 mg/ml (400 ppm) in non-carbonated mineral water vs sucrose 20 g/l; panel of 3-4 panelists
# Description: The isolated pure compound was dissolved in non-carbonated mineral water (“Evian”) in a concentration of 0.4 mg/ml (400 ppm). The sweet taste of each sample was compared by a panel of 3-4 panelists with a solution of sucrose in a concentration of 20 g/l.
# [3] = Organoleptic test in combination with sucrose against sucrose (sucrose enhancement, 2-AFC); assay type: in vivo; set-up: key: x = detected; details: compound below its sweetness perception level in 6% sucrose vs 6% sucrose, 12 to 15 panelists
# Description: The isolated pure compounds were dissolved in non-carbonated mineral water (“Evian”) in a concentration of 50 ppm (0.05 mg/ml), 25 ppm (0.025 mg/ml), 12.5 pm (0.0125 mg/ml) and […] (0.00625 mg/ml). The sweet taste of each sample was detected by a panel of 3-4 panelists to detect the sweetness perception level. The highest concentration below the sweetness perception level was used for the evaluation of the sweet taste enhancement of sucrose.
# (§1) A solution of the isolated compound in a concentration below the sweetness perception level was dissolved in 6% sucrose solution. The sweet taste of this sample was compared to the sweet taste of a 6% sucrose solution by a panel of 12 to 15 panelists in a two-alternative forced-choice test (2-AFC. E2164-16_Standard Test Method for Directional Difference Test). The panelists were trained to differentiate between the sweetness of a 6% and a 7% Sucrose solution.
# [4] = Organoleptic test in combination with Rebaudioside M (Rebaudioside M enhancement, 2-AFC); assay type: in vivo; set-up: key: x = detected; details: compound below its sweetness perception level in 150 ppm Rebaudioside M vs 150 ppm Rebaudioside M, 12 to 15 panelists
# Description: The isolated pure compounds were dissolved in non-carbonated mineral water (“Evian”) in a concentration of 50 ppm (0.05 mg/ml), 25 ppm (0.025 mg/ml), 12.5 pm (0.0125 mg/ml) and 6.125 ppm (0.006125 mg/ml). The sweet taste of each sample was detected by a panel of 3-4 panelists to detect the sweetness perception level. The highest concentration below the sweetness perception level was used for the evaluation of the sweet taste enhancement of Rebaudioside M.
# as §1, with “compounds” for “compound”, “150 ppm Rebaudioside M” for “6% sucrose”, “150 ppm” for “6%”, “190 ppm Rebaudioside M” for “7% Sucrose”
Compound,enhancement of the sweetness of sucrose [1],Sweetness [2],Sucrose enhancement [3],Reb M enhancement [4]
COc1ccc([C@@H]2CC(=O)c3c(O)cc(O)cc3O2)cc1O [hesperetin],41%,,,
C[C@@H]1O[C@@H](O[C@@H]2[C@@H](O[C@@H]3O[C@@H](C)[C@H](O[C@@H]4OC[C@H](O)[C@H](O[C@@H]5OC[C@@H](O)[C@H](O)[C@H]5O)[C@H]4O)[C@@H](O[C@@H]4OC[C@](O)(CO)[C@H]4O)[C@H]3O)[C@H](OC(=O)[C@]34CCC(C)(C)C[C@H]3C3=CCC5[C@@]6(C)CC[C@H](O[C@@H]7O[C@H](CO[C@@H]8OC[C@H](O)[C@H](O)[C@H]8O)[C@@H](O)[C@H](O)[C@H]7O)C(C)(C)C6CC[C@@]5(C)[C@]3(C)C[C@H]4O)OC[C@H]2O)[C@H](O)[C@H](O)[C@H]1O (stereo partly shown) [Astersaponin D],,2,x,x
C[C@@H]1O[C@@H](O[C@H]2[C@H](OC(=O)[C@]34CCC(C)(C)C[C@H]3C3=CCC5[C@@]6(C)CC[C@H](O[C@@H]7O[C@H](CO[C@@H]8OC[C@H](O)[C@H](O)[C@H]8O)[C@@H](O)[C@H](O)[C@H]7O)C(C)(C)C6CC[C@@]5(C)[C@]3(C)C[C@H]4O)OC[C@@H](O)[C@@H]2O)[C@H](O)[C@H](O[C@@H]2OC[C@](O)(CO)[C@H]2O)[C@H]1O[C@@H]1OC[C@H](O)[C@H](O[C@@H]2OC[C@@H](O)[C@H](O)[C@H]2O)[C@H]1O (stereo partly shown) [Astersaponin B],,1,x,x
C[C@@H]1O[C@@H](O[C@@H]2[C@@H](O[C@@H]3O[C@@H](C)[C@H](O[C@@H]4OC[C@H](O)[C@H](O[C@@H]5OC[C@@H](O)[C@H](O)[C@H]5O)[C@H]4O)[C@@H](OC4OC[C@](O)(CO)[C@H]4O)[C@H]3O)[C@H](OC(=O)[C@]34CCC(C)(C)C[C@H]3C3=CCC5[C@@]6(C)C[C@H](O)[C@H](O[C@@H]7O[C@H](CO[C@@H]8OC[C@H](O)[C@H](O)[C@H]8O)[C@@H](O)[C@H](O)[C@H]7O)C(C)(C)C6CC[C@@]5(C)[C@]3(C)C[C@H]4O)OC[C@H]2O)[C@H](O)[C@H](O)[C@H]1O (stereo partly shown) [Astersaponin C],,3,x,x
C[C@@H]1O[C@@H](O[C@H]2[C@H](OC(=O)[C@]34CCC(C)(C)C[C@H]3C3=CC[C@@H]5[C@@]6(C)C[C@H](O)[C@H](O[C@@H]7O[C@H](CO[C@@H]8OC[C@H](O)[C@H](O)[C@H]8O)[C@@H](O)[C@H](O)[C@H]7O)C(C)(C)[C@@H]6CC[C@@]5(C)[C@]3(C)C[C@H]4O)OC[C@@H](O)[C@@H]2O)[C@H](O)[C@H](O)[C@H]1O[C@@H]1OC[C@H](O)[C@H](O[C@@H]2OC[C@@H](O)[C@H](O)[C@H]2O)[C@H]1O [Astersaponin E],,2,x,x
C[C@@H]1O[C@@H](O[C@H]2[C@H](OC(=O)[C@]34CCC(C)(C)C[C@H]3C3=CCC5[C@@]6(C)CC[C@H](O[C@@H]7O[C@H](CO[C@@H]8OC[C@H](O)[C@H](O)[C@H]8O)[C@@H](O)[C@H](O)[C@H]7O)C(C)(C)C6CC[C@@]5(C)[C@]3(C)C[C@H]4O)OC[C@@H](O)[C@@H]2O)[C@H](O)[C@H](O)[C@H]1O[C@@H]1OC[C@H](O)[C@H](O[C@@H]2OC[C@@H](O)[C@H](O)[C@H]2O)[C@H]1O (stereo partly shown) [Astersaponin F],,1,x,x
C[C@@H]1O[C@@H](O[C@H]2[C@H](OC(=O)[C@]34CCC(C)(C)C[C@H]3C3=CCC5[C@@]6(C)C[C@H](O)[C@H](O[C@@H]7O[C@H](CO[C@@H]8OC[C@H](O)[C@H](O)[C@H]8O)[C@@H](O)[C@H](O)[C@H]7O)C(C)(C)C6CC[C@@]5(C)[C@]3(C)C[C@H]4O)OC[C@@H](O)[C@@H]2O)[C@H](O)[C@H](O[C@@H]2OC[C@](O)(CO)[C@H]2O)[C@H]1O[C@@H]1OC[C@H](O)[C@H](O[C@@H]2OC[C@@H](O)[C@H](O)[C@H]2O)[C@H]1O (stereo partly shown) [Astersaponin A],,2,x,x
